Series [1] in a line: Pharmacokinetic study in rats. As to conditions: female, Sprague Dawley, rat, plasma. In kind it is in vivo.
Series [2] is described as follows: Particle size and surface charge by dynamic light scattering. In kind it is physicochemical. As to conditions: dynamic light scattering analyzer, Nano ZS, mean ± SD.

As usually defined, the AUC(0-inf) is the area under the concentration-time curve extrapolated to infinity. Low values mean less exposure, high ones more exposure. What is called AUC(0-t) is exposure summed from dosing to a finite time, without extrapolation to infinity. Lower therefore signals less exposure. By Cmax is commonly meant the peak of the concentration-time curve. As usually defined, the Tmax is the time from dosing to the highest level.

Turning to `CC[C@H](C)[C@H](NC(=O)[C@H](CCC(=O)O)NC(=O)[C@H](CO)NC(=O)[C@@H](NC(=O)[C@@H](N)CO)C(C)C)C(=O)N[C@@H](CCC(N)=O)C(=O)N[C@@H](CC(C)C)C(=O)N[C@@H](CCSC)C(=O)N[C@@H](Cc1cnc[nH]1)C(=O)N[C@@H](CC(N)=O)C(=O)N[C@@H](CC(C)C)C(=O)NCC(=O)N[C@@H](CCCCN)C(=O)N[C@@H](Cc1cnc[nH]1)C(=O)N[C@@H](CC(C)C)C(=O)N[C@@H](CC(N)=O)C(=O)N[C@@H](CO)C(=O)N[C@@H](CCSC)C(=O)N[C@@H](CCC(=O)O)C(=O)N[C@@H](CCCN=C(N)N)C(=O)N[C@H](C(=O)N[C@@H](CCC(=O)O)C(=O)N[C@@H](Cc1c[nH]c2ccccc12)C(=O)N[C@@H](CC(C)C)C(=O)N[C@@H](CCCN=C(N)N)C(=O)N[C@@H](CCCCN)C(=O)N[C@@H](CCCCN)C(=O)N[C@@H](CC(C)C)C(=O)N[C@@H](CCC(N)=O)C(=O)N[C@@H](CC(=O)O)C(=O)N[C@H](C(=O)N[C@@H](Cc1cnc[nH]1)C(=O)N[C@@H](CC(N)=O)C(=O)N[C@@H](Cc1ccccc1)C(=O)O)C(C)C)C(C)C` [rhPTH (1-34)], in series [1] (0.1 mg kg^−1), the AUC(0-inf) is 0.0448 ng·h/mL, the AUC(0-t) was 0.0309 ng·h/mL, the Cmax turned out to be 0.0392 ± 0.0198 ng/mL and the Tmax is 30 min. This compound also returned a F rel in series [1] (0.1 mg/kg) of 1.06 ± 0.85%. In addition, in series [1] (sc, 0.02 mg kg^−1), the AUC(0-inf) was 0.603 ng·h/mL, the AUC(0-t) is 0.585 ng·h/mL, the Cmax turned out to be 0.711 ± 0.0978 ng/mL and the time to peak (Tmax) is 15 min.
As to “lysine-linked deoxycholic acid [LysDOCA]”, the Zeta potential in series [2] worked out at 6.27±1.29.

The values above are taken from article PMC5012625 (International Journal of Nanomedicine, 2016).
